What all share (assay type): cell-based, human
Assay [1] concerns p38 MAPK. Description: Phosphorylation of p38 MAPK in HRECs after TNF-α (immunoblot). Here is the method:
HRECs were seeded at 10^5 cells/well in a 6-well plate and after 24 hours of incubation at 37° C., cells were serum starved in 0.1% serum-EBM-2 for 8 hours. Cells were then treated with the indicated concentrations of SH-11052 (2) for one hour before the addition of 20 ng/ml of TNF-α. After 20 minutes, cells were lysed in NP-40 Lysis buffer containing 25 mM HEPES pH 7.4, 1% NP-40, 150 mM NaCl, 10% glycerol, 1 mM sodium orthovanadate, 10 mM sodium fluoride, 1 mM sodium pyrophosphate, 1 mM PMSF, 2.5 mg/ml aprotinin, 1 mM pepstatin, and 1 mM leupeptin. Equal amounts of proteins (80 μg), as measured by a Bradford assay, were run on 10% SDS-PAGE, transferred to PVDF membrane, blocked with 5% BSA in TBS-0.05% Tween-20 and immunoblotted with the indicated primary antibodies (1:1000 in 1% BSA in TBS-0.05% Tween-20) overnight at 4° C. After three washes in TBS-0.05% Tween-20, HRP-conjugated secondary antibodies (1:5000 in 5% BSA in TBS-0.05% Tween-20) were applied for one hour at room temperature. After three washes, the protein bands were detected and densitized using ECL Prime western blot detection reagent (GE Life Sciences, Piscataway, N.J., USA) and an XRS gel documentation system running Quantity One software (Bio-Rad). Target protein band intensity was normalized to housekeeping gene α-tubulin. […]

In assay [2] the test system is HRECs. Nature of the assay: EdU incorporation (DNA synthesis) in HRECs. The note with it: 24 hours treatment, 10 μM EdU pulse; listed as SH-11052 (2). The method, then: In order to confirm the inhibition of cell proliferation, incorporation of 5-ethynyl-2′-deoxyuridine (EdU) into endothelial cells in the presence of SH-11052 (2) was further monitored. Particularly, cells (25,000 per coverslip) were seeded onto coverslips coated with Attachment Factor (Cell Systems, Kirkland, Wash., USA) placed in a 6-well plate and incubated with the indicated concentrations of SH-11052 (2) in EGM-2 for 24 hours at 37° C. and 5% CO2. The cells were then serum starved for 8 hours and the medium was replaced with EGM-2 containing 10 μM EdU. The plate was further incubated for another 8 hours before processing the cells for detection of labeled DNA (according to the manufacturer's instructions for the Click-iT EdU assay kit). Images were taken using an EVOS fluorescence microscope (AMG, Mill Creek, Wash., USA) and the number of DAPI stained and EdU stained cells were counted in six randomly chosen fields using ImageJ software.

The subject of assay [3] is IL8. Nature of the assay: qRT-PCR of NF-κB target gene IL8 in TNF-α challenged cells. The conditions noted are these: 10 ng/ml TNF-α for 24 hours; listed as SH-11052 (2). Here is the method:
Similarly, the mRNA expression of the pro-inflammatory molecules IL8, PTGS2 (COX2) and CCL2 (MCP-1), inducible by NF-κB, were analyzed in the presence of SH-11052 (2). Cells (10^5 per well) were seeded in a 6-well plate and incubated for 24 hours at 37° C. and 5% CO2. The cells were then starved in 0.1% serum-EBM-2 for 12 hours followed by incubation for an hour in the presence of different concentrations of SH-11052 (2). The cells were then challenged for 24 hours with 10 ng/ml TNF-α. Following incubation, cells were lysed and RNA was isolated using Trizol reagent (Life Technologies). cDNA was prepared from 80 ng total RNA using random primers and M-MuLV Reverse Transcriptase (New England Biolabs, Ipswich, Mass., USA). RT-PCR reactions were set up using the TaqMan Fast Gene Expression Assay Kit according to the manufacturer's instructions. FAM-labeled TaqMan probes for PTGS2 (Hs00153133_m1), CCL2 (Hs00234140_m1), IL8 (Hs00174103_m1), and control, TBP (Hs99999910_m1), genes were used to monitor the expression levels of these genes. The qRT-PCR plate was read in a ViiATM 7 qPCR system (Life Technologies) and the data were analyzed using the ΔΔCt method. The expression levels of genes were normalized to TBP gene expression and calibrated to the DMSO-treated, unstimulated sample.

Assay [4] deals with VCAM-1. Nature of the assay: VCAM-1 protein expression in HRECs exposed to TNF-α (immunofluorescence). The note with it: 10 ng/ml TNF-α for 24 hours. Here is the method:
Cells (25,000 per coverslip) were seeded onto coverslips coated with Attachment Factor (Cell Systems, Kirkland, Wash., USA) and incubated at 37° C. and 5% CO2 for 24 hours in EGM-2. The cells were starved in 0.1% serum-EBM-2 for 8 hours followed by incubation in 0.1% serum-EBM-2 medium for an hour in the presence of different concentrations of SH-11052 (2). The cells were challenged with 10 ng/ml of TNF-α for 24 hours and fixed with 4% paraformaldehyde solution for 20 minutes at room temperature. The coverslips were quickly washed three times in TBS and blocked using 10% block solution (DAKO) prepared in 1×TBS-1% BSA buffer. The coverslips were incubated with the antibody against VCAM-1 (1:100 dilution), a cell adhesion molecule specifically expressed on endothelial cells, whose expression is induced by NF-κB upon TNF-α signaling, for 16 hours at 4° C. followed by three washes in TBS-0.1% BSA buffer. Dylight 555-conjugated secondary antibody (1:200) was used to probe for the VCAM-1 antibody. After three washes in TBS-0.1% BSA, the coverslips were mounted using Vectashield mounting medium containing DAPI nuclear stain. The cells were imaged using an LSM 700 confocal microscope. The image was analyzed for fluorescence signal intensity using MetaMorph software (Molecular Devices, Sunnyvale, Calif., USA).

“Also recorded” adds a separate entry of the source.

The results in this text go back to patent US10738024B2, “Compounds for treatment of angiogenesis-mediated diseases” (Indiana University Research and Technology Corporation, priority 2013, dated 2020).

Consider `COc1ccc(CC2COc3cc(OC)c(O)c(O)c3C2=O)cc1O` (single isomer, unassigned) [Compound 2], for which, in assay [1], the “phosphorylation of p38 MAPK” value is reported as “inhibited phosphorylation”. The “DNA synthesis (EdU incorporation) in HRECs” value in assay [2] is “blocked EdU incorporation; also recorded: significantly inhibited in a dose dependent manner”. Further, the “mRNA expression of IL8” value in assay [3] is given as “decreased the expression”. The VCAM-1 protein expression result in assay [4] is recorded as “significant dose-dependent decrease”.
